Experimental findings from patent EP4321162A1 (priority 2022, dated 2024) are described below.

One data set relates to Calu-3 2B4 cells. As to conditions: uninfected Calu-3 2B4 cells, 1-50 µM tested, 48 h.
The next data set relates to SARS-CoV-2. On the set-up: species or system K18-hACE2 mice. As to conditions: mouse, in vivo.

Take `CC(C)(C)c1cc(C(C)(C)C)c(NC(=O)c2c[nH]c3ccccc3c2=O)cc1O` [VX770, N-(2,4-ditert-butyl-5-hydroxyphenyl)-4-oxo-1H-quinoline-3-carboxamide]: in the data set on Calu-3 2B4 cells, the “cytotoxicity of the administered concentrations (cell viability, MTT)” value was “non-toxic”. Also, in the data set on SARS-CoV-2, the “protection levels (survival)” value was determined as 40%.

On to `Cc1ccc(NC(=O)C2(c3ccc4c(c3)OC(F)(F)O4)CC2)nc1-c1cccc(C(=O)O)c1` [VX809, 3-[6-[[1-(2,2-difluoro-1,3-benzodioxol-5-yl)cyclopropanecarbonyl]amino]-3-methylpyridin-2-yl]benzoic acid], for which the “cytotoxicity of the administered concentrations (cell viability, MTT)” value in the data set with Calu-3 2B4 cells was “non-toxic”. For the same molecule, the “protection levels (survival)” value in the data set on SARS-CoV-2 is recorded as 20%.
